Experimental data from patent publication US8313949B2, “Detecting phospholipidosis and diagnosing lysosomal storage disorders” (Nextcea Inc., priority 2009, dated 2012).

Key:
rats [1] = conditions: rat, in vivo
Protocol: The relationship between amiodarone, azithromycin, or citalopram exposure and the occurrence of drug-induced phospholipidosis was investigated in Fisher rats. Rats were treated with amiodarone (50 mg/kg/day), azithromycin (100 mg/kg/day), citalopram (90 mg/kg/day), or no drug for 4-weeks. Urine samples were collected from each animal and prepared for analysis using a liquid/liquid extraction method. The urine samples (200 μl urine per rat) were mixed with cold 3:1 chloroform/methanol (v/v) (400 μl) and vortexed before adding 0.1% formic acid (aq.) (100 μl). The samples were vortexed again, allowed to sit for 5 min, and centrifuged for 15 min. The bottom (organic) layer was carefully removed and concentrated to dryness. The samples were reconstituted to 30 μl with 0.05% formic acid in 2:1 acetonitrile/methanol (v/v).
The molecular profile of each urine sample was acquired using liquid chromatography coupled to mass spectrometry (LC/MS). Injections were made onto a 150×2.00 mm Synergi Hydro-RP column (Phenomenex, Torrance, Calif., USA) using an a Gilson 235 auto-injector (Gilson, Inc., Middletown, Wis., USA) and an Agilent 1100 binary pump (Agilent Technologies, Palo Alto, Calif., USA). Mobile phase A was 0.25% ammonium hydroxide, 0.05% formic acid in 88:12 methanol/water (v/v). Mobile phase B was 0.25% ammonium hydroxide, 0.05% formic acid in 80:20 methanol/hexane (v/v). […]

[2] = test system: bronchoalveolar lavage (BAL) cells; conditions: patients with amiodarone pulmonary toxicity; Martin and Standing 1988; cited from earlier work
rats [3] = experiment: Urinary di-C22:6-BMP levels during 17-day azithromycin treatment (Example 4); type: in vivo, rat; conditions: azithromycin 150 mg/kg/day, all isoforms (FIG. 9)
Protocol: The methods described above were used to evaluate the tissue phospholipidosis induced by azithromycin (150 mg/kg/day) in rats over a 17-day period. Urine samples were collected from the rats on Days 11 and 17 and subjected to the assay. […] On Day 11, the mean level (n=5 rats per group) of di-C22:6-BMP in urine was increased by 2.6-fold in the rats treated with azithromycin compared to the controls. On Day 17, the mean level (n=5 rats per group) of di-C22:6-BMP in urine was increased approximately by 4.5-fold in the azithromycin treated rats compared to the control rats.

| Compound | level of di-22:6-PG in urine (rats [1]) | increase in total BMP in BAL cells compared to control subjects [2] | increase in total PG in BAL cells compared to control subjects [2] | increase of mean level of di-C22:6-BMP in urine compared to controls, Day 11 (rats [3]; Day 11, n=5 rats per group) [fold] | increase of mean level of di-C22:6-BMP in urine compared to controls, Day 17 (rats [3]; Day 17, n=5 rats per group) [fold] |
| --- | --- | --- | --- | --- | --- |
| CCCCc1oc2ccccc2c1C(=O)c1cc(I)c(OCCN(CC)CC)c(I)c1 [amiodarone] | increased | +64% | +1866% |  |  |
| CC[C@H]1OC(=O)[C@H](C)[C@@H](O[C@H]2C[C@@](C)(OC)[C@@H](O)[C@H](C)O2)[C@H](C)[C@@H](O[C@@H]2O[C@H](C)C[C@H](N(C)C)[C@H]2O)[C@](C)(O)C[C@@H](C)CN(C)[C@H](C)[C@@H](O)[C@]1(C)O [azithromycin] |  |  |  | 2.6 | ~4.5 |
| CCN(CC)CCCC(C)Nc1ccnc2cc(Cl)ccc12 (stereo not drawn) [chloroquine] | not |  |  |  |  |
